According to patent publication US20030135023A1, “Peptide structures useful for competitive modulation of dipeptidyl peptidase IV catalysis” (priority 2001, published 2003):
Read-outs that look alike come from different tables or passages of the source. Square brackets hold non-standard residues; d marks the D form. Peptide text beside a SMILES is read from it. * marks the point of attachment. aIle = CC[C@@H](C)[C@H](N)C(=O)O; Tic = O=C(O)[C@@H]1Cc2ccccc2CN1; Aoc(2) = CCCCCC[C@H](N)C(=O)O; Phg = N[C@H](C(=O)O)c1ccccc1; Tle = CC(C)(C)[C@H](N)C(=O)O; Pip = O=C(O)[C@@H]1CCCCN1; Nle = CCCC[C@H](N)C(=O)O; Orn = NCCC[C@H](N)C(=O)O; Aze = O=C(O)[C@@H]1CCN1; Nva = CCC[C@H](N)C(=O)O; Abu = CC[C@H](N)C(=O)O; Bn = c1ccc(C*)cc1

What was measured:
purified porcine DP IV [1] = target: T1, purified porcine DP IV (Sus scrofa, UniProt P22411); test: Determination of Ki-values, Gly-Pro-pNA cleavage by DP IV; format: biochemical; conditions: Gly-Pro-pNA 0.05-0.4 mM
Protocol: (§1) 100 μl inhibitor stock solution were mixed with 100 μl buffer (HEPES pH 7.6) and 50 μl substrate (Gly-Pro-pNA, final concentration 0.4 mM) and preincubated at 30° C. Reaction was started by addition of 20 μl purified porcine DP IV. Formation of the product pNA was measured at 405 nm over 10 min using the HTS 7000 Plus plate reader (Perkin Elmer) and slopes were calculated. The final inhibitor concentrations ranged between 1 mM and 30 nM.
Calculations were performed using the GraFit Software.

purified porcine DP IV [2] = target: T1, purified porcine DP IV; test: Determination of IC50-values, Gly-Pro-pNA cleavage by DP IV; format: biochemical; conditions: Gly-Pro-pNA 0.4 mM, HEPES pH 7.6, 30° C.; read-out: IC50
Protocol: as §1
For calculation of IC50-values GraFit 4.0.13 (Erithacus Software) was used.

[3] = system: diabetic Zucker rats (fa/fa); test: Oral glucose tolerance test (OGTT) in diabetic Zucker rats; format: in vivo; conditions: 100 mg/kg b.w. p.o.; for Improvement of glucose tolerance: AUC test compound vs AUC Control; for AUC test compound (glucose, OGTT): OGTT 2 g/kg glucose
Protocol: N=30 male Zucker rats (fa/fa), mean age 11 weeks (5-12 weeks), mean body weight 350 g (150-400 g), were purchased from Charles River (Sulzfeld, Germany). They were kept for >12 weeks until all the fatty Zucker rats had the characteristics of manifest Diabetes mellitus.
After overnight fasting, the fatty Zucker rats were given placebo, positive control and test substance, respectively, via feeding tube orally (15 G, 75 mm; Fine Science Tools, Heidelberg, Germany) at −10 min. An oral glucose tolerance test (OGTT) with 2 g/kg b.w. glucose as a 40% solution (B. Braun Melsungen, Melsungen, Germany) was implemented at ±0 min. The glucose was administered via a second feeding tube. Arterial blood samples from the carotid catheter were collected at −30 min, −15 min, ±0 min and at 5, 10, 15, 20, 30, 40, 60, 90 and 120 min into 20 μl glass capillaries, which were placed in standard tubes filled with 1 ml solution for hemolysis (blood glucose measurement).
Blood glucose: Glucose levels were measured using the glucose oxidase procedure (Super G Glukosemeβgerät; Dr. Müller Gerätebau, Freital, Germany).

plasma DP IV = target: T2, plasma DP IV (Rattus norvegicus, UniProt P14740); test: Plasma DP IV activity after intravasal and oral administration in Wistar rats; format: in vivo; conditions: rat, Wistar rats, 100 mg/kg
T2 construct: The assay mixture consisted of 80 μl reagent and 20 μl plasma; from tissue; host or cells: plasma of Wistar rats
Protocol: Rats with intact catheter function were given the test substances intravasal (intraarterial) or oral, respectively, in random order (N=3 Wistar rats in each group). As positive control, […]. isoleucine thiazolidine*fumarate were administered intravasal.
After overnight fasting, 100 μl samples of heparinized arterial blood were collected at −30, −5, and 0 min into ice-cooled Eppendorf tubes (see below). The test substances were dissolved freshly in 1.0 ml saline (0.154 mol/l) and were given at 0 min either oral via a feeding tube ([…], 75 mm; Fine Science Tools, Heidelberg, Germany) or intravasal. For the intravasal route, the catheter was immediately flushed with 30 μl saline and an additional 1 ml of saline was given orally via the feeding tube.
Arterial blood samples were taken thereafter at 5, 10 (only in a limited number of experiments), 20, 40, 60 and 120 min from the carotid catheter of the conscious unrestrained rats and were always given into ice cooled Eppendorf tubes (Eppendorf-Netheler-Hinz, Hamburg, Germany) filled with 10 μl 1 M citrate buffer pH 3.0 for prevention of further hydrolysis of tripeptides by plasma DP IV activity. Eppendorf tubes were centrifuged immediately (12000 rpm for 2 min, Hettich Zentrifuge EBA 12, Tuttlingen; Germany): The plasma fractions were store on ice until analysis or were deeply frozen at −20 ° C. until analysis.
Plasma DP IV activity: The assay mixture consisted of 80 μl reagent and 20 μl plasma. Kinetic measurements of the formation of the yellow product 4-nitroaniline were performed at 390 nm for 1 min at 30° C. after 2 min pre-incubation at the same temperature. The activity was expressed as arbitrary units [AU] and DP IV activity [mU/ml].
The absolute values of plasma DP IV activity, the relative change of plasma DP IV activity and the time and extent of maximal inhibition were calculated. Data presentation included the presentation of area under the curve (AUC), which was used for evaluation of extent of inhibition of plasma DP IV activity during the two hours of observation. AUC was calculated using the trapezoidal rule.
To compare relative changes of parameters under the conditions of different initial values of DP IV activity an uniform standardised mean (values) was set up at the beginning of the test (see Figures and Tables).
Statistical evaluations were performed with Microsoft Excel® 97. All variables are presented as mean and standard deviation (SD). Treatment groups were compared by Student's t-test, within-group changes by paired t-test. Two-tailed values of p<0.05 were considered significant.

T1 sequence (P22411 whole entry): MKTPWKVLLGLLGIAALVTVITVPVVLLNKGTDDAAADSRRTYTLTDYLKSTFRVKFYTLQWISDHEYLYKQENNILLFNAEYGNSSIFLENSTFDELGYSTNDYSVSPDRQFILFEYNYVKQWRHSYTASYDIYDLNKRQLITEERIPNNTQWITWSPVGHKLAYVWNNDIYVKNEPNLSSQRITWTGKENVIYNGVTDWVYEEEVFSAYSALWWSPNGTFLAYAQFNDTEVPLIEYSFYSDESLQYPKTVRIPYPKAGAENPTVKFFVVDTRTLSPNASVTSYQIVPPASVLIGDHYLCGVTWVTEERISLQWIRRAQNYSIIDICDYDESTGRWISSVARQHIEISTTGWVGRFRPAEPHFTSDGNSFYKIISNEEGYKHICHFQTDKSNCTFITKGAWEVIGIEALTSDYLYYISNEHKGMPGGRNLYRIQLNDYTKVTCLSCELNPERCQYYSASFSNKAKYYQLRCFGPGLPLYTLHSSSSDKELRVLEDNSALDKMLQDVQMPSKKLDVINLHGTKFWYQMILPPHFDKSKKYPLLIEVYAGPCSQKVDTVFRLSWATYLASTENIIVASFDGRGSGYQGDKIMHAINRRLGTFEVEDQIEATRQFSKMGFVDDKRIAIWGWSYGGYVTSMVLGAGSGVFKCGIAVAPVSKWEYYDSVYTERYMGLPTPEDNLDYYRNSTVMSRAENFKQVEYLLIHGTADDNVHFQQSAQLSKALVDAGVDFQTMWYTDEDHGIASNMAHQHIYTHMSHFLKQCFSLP
T2 sequence (P14740 37-767 limits assumed): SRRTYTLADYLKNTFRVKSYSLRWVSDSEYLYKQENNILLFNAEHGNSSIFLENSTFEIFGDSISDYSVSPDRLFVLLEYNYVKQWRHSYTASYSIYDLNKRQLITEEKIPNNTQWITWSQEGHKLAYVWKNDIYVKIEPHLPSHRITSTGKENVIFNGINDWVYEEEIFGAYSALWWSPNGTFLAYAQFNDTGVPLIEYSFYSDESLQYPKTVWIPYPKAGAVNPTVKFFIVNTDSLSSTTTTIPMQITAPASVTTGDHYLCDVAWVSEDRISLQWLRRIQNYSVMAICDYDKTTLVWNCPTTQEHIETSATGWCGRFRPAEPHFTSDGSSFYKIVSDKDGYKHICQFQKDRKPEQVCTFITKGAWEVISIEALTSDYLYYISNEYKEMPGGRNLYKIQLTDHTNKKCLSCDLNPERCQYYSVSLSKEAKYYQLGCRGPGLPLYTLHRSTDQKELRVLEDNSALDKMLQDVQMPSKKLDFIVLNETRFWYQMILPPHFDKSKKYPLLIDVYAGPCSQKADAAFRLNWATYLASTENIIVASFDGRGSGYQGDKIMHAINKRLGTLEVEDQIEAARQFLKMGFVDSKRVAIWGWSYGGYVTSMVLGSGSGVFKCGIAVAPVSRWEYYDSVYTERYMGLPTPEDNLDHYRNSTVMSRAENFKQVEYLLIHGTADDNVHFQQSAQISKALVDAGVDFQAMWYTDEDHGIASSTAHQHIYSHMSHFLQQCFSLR

Row | Ki (purified porcine DP IV [1]) [µM] | IC50 (purified porcine DP IV [2]) [µM] | SMILES | further results
1 | 12.6 | 42.1 | CCCCCC[C@H](N)C(=O)N1CCC[C@H]1C(=O)N[C@H](C(=O)O)[C@@H](C)CC [AOA-Pro-Ile, 2-Amino octanoic acid-Pro-Ile] (H-[Aoc(2)]-Pro-Ile-OH) | 
2 | 8.75 | 34.3 | CC[C@H](N)C(=O)N1CCC[C@H]1C(=O)N[C@H](C(=O)O)[C@@H](C)CC [Abu-Pro-Ile] (H-[Abu]-Pro-Ile-OH; N-terminus and C-terminus assumed) | 
3 | 20.5 | 72.8 | CC[C@H](C)[C@H](NC(=O)[C@@H]1CCCN1C(=O)[C@@H]1CCN1)C(=O)O [Aze−Pro-Ile, Aze-Pro-Ile] (H-[Aze]-Pro-Ile-OH; N-terminus and C-terminus assumed) | 
4 | 18.9 | 82.3 | CC[C@H](C)[C@H](N)C(=O)N1CCC[C@H]1C(=O)N[C@H](C(=O)O)C(C)(C)C [Ile-Pro-t-butyl-Gly] (H-Ile-Pro-[Tle]-OH; N-terminus and C-terminus assumed) | Improvement of glucose tolerance [3]: 5.3%; AUC test compound (glucose, OGTT) [3]: 819.5 mmol·min/L
5 | 5.22 | 15.4 | CC[C@@H](C)[C@H](NC(=O)[C@@H]1CCCN1C(=O)[C@@H](N)[C@@H](C)CC)C(=O)O [Ile−Pro-(allo)Ile, Ile-Pro-allo-Ile] | 
6 | 9.6 | 21.9 | CCCC[C@H](N)C(=O)N1CCC[C@H]1C(=O)N[C@H](C(=O)O)[C@@H](C)CC [Nle−Pro-Ile, Nle-Pro-Ile] (H-[Nle]-Pro-Ile-OH; N-terminus and C-terminus assumed) | 
7 | 6.17 | 24.9 | CCC[C@H](N)C(=O)N1CCC[C@H]1C(=O)N[C@H](C(=O)O)[C@@H](C)CC [Nva-Pro-Ile] (H-[Nva]-Pro-Ile-OH; N-terminus and C-terminus assumed) | 
8 |  | 216 | CC[C@H](C)[C@H](NC(=O)[C@@H]1CCCN1C(=O)[C@@H](N)CCCN)C(=O)O [Orn-Pro-Ile] (H-[Orn]-Pro-Ile-OH; N-terminus and C-terminus assumed) | 
9 |  | 154 | CC[C@H](C)[C@H](NC(=O)[C@@H]1CCCN1C(=O)[C@@H](N)c1ccccc1)C(=O)O [Phg-Pro-Ile] (H-[Phg]-Pro-Ile-OH; N-terminus and C-terminus assumed) | 
10 |  | > 100000 | CC[C@H](C)[C@H](NC(=O)[C@@H]1CCCN1C(=O)[C@@H]1CCCCN1)C(=O)O [Pip-Pro-Ile] (H-[Pip]-Pro-Ile-OH; N-terminus and C-terminus assumed) | 
11 | 21.6 | 67.8 | CC[C@H](C)[C@H](NC(=O)[C@@H]1CCCN1C(=O)[C@@H](N)COCc1ccccc1)C(=O)O [Ser(Bzl)-Pro-Ile] (H-Ser(Bn)-Pro-Ile-OH; N-terminus and C-terminus assumed) | 
12 |  | 800 | CC[C@H](C)[C@H](NC(=O)[C@@H]1CCCN1C(=O)[C@@H]1Cc2ccccc2CN1)C(=O)O [Tic-Pro-Ile] (H-[Tic]-Pro-Ile-OH; N-terminus and C-terminus assumed) | 
13 | 9.54 | 18 | CC[C@@H](C)[C@H](NC(=O)[C@@H]1CCCN1C(=O)[C@@H](N)C(C)C)C(=O)O [Val-Pro-(allo)Ile, Val-Pro-allo-Ile] | 
14 | 19.6 |  | CC(C)[C@H](N)C(=O)N1CCC[C@H]1C(=O)N[C@H](C(=O)O)C(C)(C)C [Val-Pro-t-butyl-Gly] (H-Val-Pro-[Tle]-OH; N-terminus and C-terminus assumed) | Improvement of glucose tolerance [3]: 16.5%; AUC test compound (glucose, OGTT) [3]: 722.4 mmol·min/L
15 | 15.1 | 56.3 | CC(C)(C)[C@H](N)C(=O)N1CCC[C@H]1C(=O)NCC(=O)O [t-butyl-Gly-Pro-Gly] (H-[Tle]-Pro-Gly-OH; N-terminus and C-terminus assumed) | 
16 | 5.6 | 22.9 | CC[C@H](C)[C@H](NC(=O)[C@@H]1CCCN1C(=O)[C@@H](N)C(C)(C)C)C(N)=O [t-butyl-Gly-Pro-Ile-NH2, t-butyl-Gly-Pro-Ile-amide] (H-[Tle]-Pro-Ile-NH2; N-terminus assumed) | 
17 | 3.1 | 13.8 | CC(C)[C@H](NC(=O)[C@@H]1CCCN1C(=O)[C@@H](N)C(C)(C)C)C(=O)O [t-butyl-Gly-Pro-Val] (H-[Tle]-Pro-Val-OH; N-terminus and C-terminus assumed) | inhibition at 100 mg/kg (plasma DP IV; iv, i.v., read-out: DPIV inhibition at tmax, i.v.): 72%; inhibition at 100 mg/kg (plasma DP IV; po, p.o., read-out: DPIV inhibition at tmax, p.o.): 25%
18 | 14.1 | 24.5 | CC(C)(C)[C@H](N)C(=O)N1CCC[C@H]1C(=O)N[C@H](C(=O)O)C(C)(C)C [t-butyl-Gly-Pro-t-butyl-Gly] (H-[Tle]-Pro-[Tle]-OH; N-terminus and C-terminus assumed) | 

Row | SMILES | Ki (purified porcine DP IV [1]) [µM] | IC50 (purified porcine DP IV [2]) [µM] | further results
19 | CC[C@@H](C)[C@H](NC(=O)[C@@H]1CCCN1C(=O)[C@@H](N)Cc1ccc(O)cc1)C(=O)O [Tyr-Pro-(allo)Ile, Tyr-Pro-allo-Ile] (H-Tyr-Pro-[aIle]-OH; N-terminus and C-terminus assumed) | 18.2 | 64.1 | 
